Measured values taken from ChEMBL document CHEMBL5233228, “The cell division protein FtsZ as a cellular target to hit cystic fibrosis pathogens” (Eur J Med Chem, 2020).
pIC50: −log10 of the molar value. Converted amounts (≈) assume the structure as drawn. Each block holds one compound with its values, some of them ahead of it.

Columns and labels:
[1] = test system: Staphylococcus aureus; experiment: Antibacterial activity against Meticillin-Resistant Staphylococcus aureus assessed as bacterial growth inhibtion incubated for 18 hrs by broth microdilution method; format: functional
[2] = test system: Staphylococcus aureus; experiment: Antibacterial activity against Meticillin-Sensitive Staphylococcus aureus assessed as bacterial growth inhibtion incubated for 18 hrs by broth microdilution method; format: functional
[3] = molecular target: T1, Cell division protein FtsZ (Staphylococcus aureus, UniProt P0A031); experiment: Inhibition of Staphylococcus aureus recombinant FTsZ preincubated for 10 mins followed by compound addition measured after 30 mins by Cytophos phosphate assay
T1 sequence (P0A031 whole entry): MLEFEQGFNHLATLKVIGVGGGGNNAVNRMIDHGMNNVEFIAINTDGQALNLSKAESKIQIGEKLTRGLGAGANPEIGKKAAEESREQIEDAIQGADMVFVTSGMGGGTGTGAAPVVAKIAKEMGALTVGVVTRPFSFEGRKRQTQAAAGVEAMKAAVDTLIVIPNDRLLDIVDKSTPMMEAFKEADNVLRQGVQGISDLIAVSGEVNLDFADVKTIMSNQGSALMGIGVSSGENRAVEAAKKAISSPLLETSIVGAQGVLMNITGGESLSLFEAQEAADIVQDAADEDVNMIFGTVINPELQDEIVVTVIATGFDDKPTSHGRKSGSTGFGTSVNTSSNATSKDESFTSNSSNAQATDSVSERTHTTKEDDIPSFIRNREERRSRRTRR

[4] = test system: Staphylococcus aureus; experiment: Antibacterial activity against Meticillin-Sensitive Staphylococcus aureus assessed as bacterial growth inhibtion incubated for 4 to 6 hrs by broth microdilution method; format: functional; details: time 4-6 hrs
[5] = Inhibition of FTsZ (unknown origin)
[6] = test system: Staphylococcus aureus; experiment: Antibacterial activity against Meticillin-Sensitive Staphylococcus aureus assessed as bacterial growth inhibtion; format: functional
[7] = test system: Staphylococcus aureus; experiment: Antibacterial activity against Meticillin-Resistant Staphylococcus aureus assessed as bacterial growth inhibtion; format: functional
[8] = molecular target: T2, Cell division protein FtsZ (Staphylococcus aureus) (UniProt P0A031); experiment: Inhibition of Staphylococcus aureus recombinant FTsZ at 50 uM by GTPase activity assay relative to control
T2 sequence (whole entry): T1 sequence (P0A031 whole entry)

[9] = test system: Staphylococcus aureus; experiment: Antibacterial activity against Meticillin-Resistant Staphylococcus aureus assessed as bacterial growth inhibtion incubated for 14 to 16 hrs; format: functional; details: time 14-16 hrs
[10] = test system: Staphylococcus aureus; experiment: Antibacterial activity against Meticillin-Sensitive Staphylococcus aureus assessed as bacterial growth inhibtion incubated for 14 to 16 hrs; format: functional; details: time 14-16 hrs
[11] = test system: Macrococcus caseolyticus; experiment: Antibacterial activity against Macrococcus caseolyticus assessed as bacterial growth inhibition; format: functional; details: Macrococcoides caseolyticum
[12] = test system: Staphylococcus aureus; experiment: Antibacterial activity against Staphylococcus aureus assessed as bacterial growth inhibition; format: functional
[13] = test system: Escherichia coli; experiment: Antibacterial activity against Escherichia coli assessed as bacterial growth inhibition; format: functional
[14] = test system: Pseudomonas aeruginosa; experiment: Antibacterial activity against Pseudomonas aeruginosa assessed as bacterial growth inhibition; format: functional
[15] = molecular target: T3, Cell division protein FtsZ (Escherichia coli K-12, UniProt P0A9A6); experiment: Inhibition of Escherichia coli recombinant FTsZ incubated for 10 mins in presence of GTP by spectrofluorimeter analysis
T3 sequence (P0A9A6 whole entry): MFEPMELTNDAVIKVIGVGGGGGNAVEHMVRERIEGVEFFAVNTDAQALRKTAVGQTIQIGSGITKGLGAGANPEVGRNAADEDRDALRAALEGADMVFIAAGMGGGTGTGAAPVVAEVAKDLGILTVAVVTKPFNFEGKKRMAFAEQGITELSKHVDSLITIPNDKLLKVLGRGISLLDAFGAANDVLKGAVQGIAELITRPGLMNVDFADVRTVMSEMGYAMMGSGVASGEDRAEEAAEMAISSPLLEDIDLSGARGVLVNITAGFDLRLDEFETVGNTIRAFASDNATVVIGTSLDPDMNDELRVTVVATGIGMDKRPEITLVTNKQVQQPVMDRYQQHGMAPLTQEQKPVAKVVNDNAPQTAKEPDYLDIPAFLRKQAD

[16] = test system: Staphylococcus aureus; experiment: Antibacterial activity against Meticillin-Resistant Staphylococcus aureus assessed as bacterial growth inhibtion by resazurin colorimetric assay; format: functional
[17] = test system: Staphylococcus aureus; experiment: Antibacterial activity against Meticillin-Sensitive Staphylococcus aureus assessed as bacterial growth inhibtion by resazurin colorimetric assay; format: functional
[18] = test system: Burkholderia cepacia; experiment: Antibacterial activity against Burkholderia cepacia assessed as bacterial growth inhibition by checkerboard assay; format: functional
[19] = test system: Staphylococcus aureus; experiment: Antibacterial activity against Meticillin-Resistant Staphylococcus aureus assessed as bacterial growth inhibtion incubated for 24 hrs by broth microdilution method; format: functional
[20] = test system: Staphylococcus aureus; experiment: Antibacterial activity against Meticillin-Sensitive Staphylococcus aureus assessed as bacterial growth inhibtion incubated for 24 hrs by broth microdilution method; format: functional

SMILES: COc1ccc2cc3[n+](cc2c1OCCCOc1ccc(Cl)cc1)CCc1cc2c(cc1-3)OCO2.[Br-]
MIC [1]: 2 µg/mL
MIC [2]: 2 µg/mL

SMILES: Cc1ccc(/C=C/c2nc(/C=C3\Sc4ccccc4N3C)c3ccccc3[n+]2C)cc1.[I-]
MIC [1]: 2 µg/mL
MIC [2]: 2 µg/mL

SMILES: CCC(CC)c1cc([C@H]2CN3CC[C@H]2C[C@@H]3CNCc2ccco2)nc(-c2ccncc2)n1
pIC50 [3]: 4.25
MIC [4]: 26.9 µM (≈ 12 µg/mL)

SMILES: Cc1nc(-c2cccs2)cc([C@H]2CN3CC[C@H]2C[C@@H]3CNC(=O)CCCC(=O)O)n1
pIC50 [3]: 3.50
MIC [4]: 897 µM (≈ 384 µg/mL)

pIC50 [3]: 5.00
SMILES: COc1ccc2cc3[n+](cc2c1OC)CCc1cc2c(cc1-3)OCO2 [BERBERINE]

SMILES: Cc1ccc(/C=C/c2nc(/C=C3\Sc4ccccc4N3CCCN3CCC(C)CC3)c3ccccc3[n+]2C)cc1.[I-]
MIC [1]: 2 µg/mL
MIC [2]: 2 µg/mL

SMILES: NC(=O)c1c(F)ccc(OCc2nc3cc(Cl)cnc3s2)c1F
IC50 [5]: 0.055 µg/mL (≈ 0.155 µM)
MIC [6]: 1 µg/mL (≈ 2.81 µM)
MIC [7]: 1 µg/mL (≈ 2.81 µM)

SMILES: CCC(CC)c1cc(CCN2CCCN(Cc3ccc(C(F)(F)F)cc3)CC2)nc(-c2ccncc2)n1
inhibition [8]: 20%
MIC [6]: 3 µg/mL (≈ 5.86 µM)
MIC [7]: 6 µg/mL (≈ 11.7 µM)

SMILES: CCN(CC)CCNc1nc(/C=C/c2ccc(Cl)cc2)nc2cc3ccccc3cc12
MIC [9]: 10 µg/mL (≈ 23.2 µM)
MIC [10]: 5 µg/mL (≈ 11.6 µM)

MIC [11]: 5 µg/mL
MIC [12]: 5 µg/mL
MIC [6]: 5 µg/mL
MIC [13]: 5 µg/mL
MIC [14]: 5 µg/mL
SMILES: Cc1n(Cc2ccc(Cl)cc2)c2ccccc2[n+]1Cc1ccc(Cl)cc1

MIC [11]: 5 µg/mL
MIC [12]: 5 µg/mL
MIC [6]: 5 µg/mL
MIC [13]: 5 µg/mL
MIC [14]: 5 µg/mL
SMILES: Cc1n(Cc2ccccc2)c2ccccc2[n+]1Cc1ccc(Cl)c(Cl)c1

SMILES: CCC(CC)c1cc([C@H]2CN3CC[C@H]2C[C@@H]3CNCc2ccc(CO)o2)nc(-c2ccncc2)n1
pIC50 [3]: 4.11
MIC [4]: 50.5 µM (≈ 24 µg/mL)

pIC50 [15]: 5.52
SMILES: C[n+]1cc2c3c(ccc2c2ccc4cc5c(cc4c21)OCO5)OCO3 [SANGUINARIUM]

SMILES: COC(=O)CSc1ccc2nsnc2c1[N+](=O)[O-]
MIC [16]: 2 µg/mL (≈ 7.01 µM)
MIC [17]: 2 µg/mL (≈ 7.01 µM)
MIC [18]: 8 µg/mL

SMILES: CCC(CC)c1cc([C@H]2CN3CC[C@H]2C[C@@H]3CN)nc(-c2ccncc2)n1
MIC [4]: 24.6 µM (≈ 8.99 µg/mL)

SMILES: CN(C)CNC(=O)c1c(F)ccc(OCc2nc3cc(Cl)ccc3s2)c1F
MIC [19]: 0.5 µg/mL (≈ 1.21 µM)
MIC [20]: 0.5 µg/mL (≈ 1.21 µM)

MIC [11]: 5 µg/mL
MIC [12]: 5 µg/mL
MIC [6]: 5 µg/mL
MIC [13]: 5 µg/mL
MIC [14]: 5 µg/mL
SMILES: Cc1n(Cc2ccc(Cl)c(Cl)c2)c2ccccc2[n+]1Cc1ccc(Cl)c(Cl)c1
